# Results published in ChEMBL document CHEMBL1141818, “Annonaceous acetogenins: recent progress” (J Nat Prod, 1999).
# Tests used:
# [1] = system: PC-3; assay: Cytotoxicity against human PC-3 cells; assay type: functional; conditions: for EC50: Homo sapiens, PC-3, read-out: ED50 (the source's name)
# [2] = system: MIA PaCa-2; assay: Cytotoxicity against human MIA PaCa2 cells; assay type: functional; conditions: for EC50: Homo sapiens, MIA PaCa-2, read-out: ED50 (the source's name)
# [3] = Toxicity in brine shrimp; assay type: organism-based; conditions: artemia, in vivo
# [4] = system: A549; assay: Cytotoxicity against human A549 cells; assay type: functional; conditions: for EC50: Homo sapiens, A549, read-out: ED50 (the source's name)
# [5] = system: MCF7; assay: Cytotoxicity against human MCF7 cells; assay type: functional; conditions: for EC50: Homo sapiens, MCF7, read-out: ED50 (the source's name)
# [6] = system: HT-29; assay: Cytotoxicity against human HT-29 cells; assay type: functional; conditions: for EC50: Homo sapiens, HT-29, read-out: ED50 (the source's name)
# [7] = system: A498; assay: Cytotoxicity against human A-498 cells; assay type: functional; conditions: for EC50: Homo sapiens, A498, read-out: ED50 (the source's name)
SMILES,EC50 [1] [µg/mL],EC50 [2] [µg/mL],LC50 [3] [µg/mL],EC50 [4] [µg/mL],EC50 [5] [µg/mL],EC50 [6] [µg/mL],EC50 [7] [µg/mL],ED50 [4],ED50 [5],ED50 [6],ED50 [2],ED50 [1],ED50 [7] [µg/mL]
CCCCCCCCCCCC[C@@H](O)[C@H]1CC[C@H]([C@H](O)CCCCC[C@@H](O)CCCCCC[C@@H]2CC(CC(C)=O)C(=O)O2)O1 (mixture of isomers),2.2,0.0045,2.7,1.9,1.7,1.4,1.5,–,–,–,–,–,–
CCCCCCCCCC[C@H](O)[C@H](O)CCCC[C@H]1CC[C@H]([C@H]2CC[C@H]([C@H](O)CCCCC[C@@H](O)CC3=C[C@H](C)OC3=O)O2)O1 [GLABRACIN A],1.1,1.8,0.13,–,–,–,0.001,2.8 ×10⁻⁶ ug/ml,4.2 ×10⁻⁶ ug/ml,5.7 ×10⁻⁶ ug/ml,–,–,–
CCCCCCCCCC[C@@H](O)[C@H]1CC[C@H]([C@H]2CC[C@H]([C@H](O)CCCC[C@H](O)CCCCC[C@@H](O)CC3=C[C@H](C)OC3=O)O2)O1,0.53,> 1,0.43,0.67,0.33,0.76,> 1,–,–,–,–,–,–
CCCCCCCCCCCC[C@@H](O)[C@H]1CC[C@H]([C@H](O)CCCCCC[C@H](O)CCCCCCCC2=C[C@H](C)OC2=O)O1,0.17,–,0.13,–,–,0.14,0.15,6.5 ×10⁻⁷ ug/ml,5.8 ×10⁻⁷ ug/ml,–,1 ×10⁻⁵ ug/ml,–,–
CCCCCCCCCC[C@H](O)[C@@H](O)CCCC[C@H]1CC[C@H]([C@H]2CC[C@H]([C@H](O)CCCCC[C@@H](O)CC3=C[C@H](C)OC3=O)O2)O1 (stereo in doubt; 21) [GLACIN B],–,–,0.27,–,–,–,2.6,1.3 µg/mL,5.2 ×10⁻² ug/ml,8.7 ×10⁻² ug/ml,1.5 ×10⁻² ug/ml,5.6 ×10⁻² ug/ml,–
CCCCCCCCCCCCCC[C@@H](O)[C@H]1CC[C@H]([C@H](O)CCCC[C@H](O)CCCCC[C@@H]2CC(CC(C)=O)C(=O)O2)O1 (mixture of isomers),0.057,0.074,0.04,0.014,–,–,0.12,–,7.6 ×10⁻⁴ ug/ml,7.4 ×10⁻⁴ ug/ml,–,–,–
CCCCC[C@H](O)[C@H](O)CCC[C@H](O)[C@H]1CC[C@H]([C@H]2CC[C@H]([C@H](O)CCCCCCCCCCCCC3=C[C@H](C)OC3=O)O2)O1 (stereo in doubt; 91) [PURPUREDIOLIN],–,–,0.43,–,–,0.0046,–,1.6 µg/mL,2.5 ×10⁻⁴ ug/ml,–,3 µg/mL,1.1 µg/mL,1.5
CCCCCCCCCCCC[C@@H](O)[C@H](O)CC[C@H](O)[C@@H]1CC[C@@H](C[C@H](O)CCCCC[C@@H](O)CC2=C[C@H](C)OC2=O)O1 [ANNOPENTOCIN A],1.1,0.036,8.9,0.17,18,1.6,0.61,–,–,–,–,–,–
CCCCCCCCCCCC[C@@H](O)[C@H]1CC[C@H]([C@H](O)CCCC[C@H](O)CCCCCCC[C@@H](O)CC2=C[C@H](C)OC2=O)O1 [ANNOGLACIN B],–,–,0.17,0.0028,–,0.0053,0.4,–,6.2 ×10⁻⁴ ug/ml,–,1.2 ×10⁻⁶ ug/ml,8.4 ×10⁻⁴ ug/ml,–
CC[C@H](O)[C@H](O)CCCCCC[C@H](O)[C@H]1CC[C@H]([C@H]2CC[C@H]([C@H](O)CCCCCCCCCCCCC3=C[C@H](C)OC3=O)O2)O1 [BULLATETROCIN],> 1,> 1,0.31,0.35,0.5,0.33,> 1,–,–,–,–,–,–
CCCCCCCCCCCC[C@H](O)[C@H]1CC[C@H]([C@H](O)CCCC[C@H](O)CCCCCCC[C@@H](O)CC2=C[C@H](C)OC2=O)O1 [ANNOGLACIN A],0.002,–,0.49,0.0053,–,0.0053,0.9,–,9.6 ×10⁻⁴ ug/ml,–,5.1 ×10⁻⁷ ug/ml,–,–
CCCCCCCCCCCC[C@@H](O)[C@H]1CC[C@H]([C@H](O)CCCCCC(O)CCCCCCC2=C[C@H](C)OC2=O)O1 (stereo partly specified),2.7,2.9,8.9,3.9,2.2,1.7,2.2,–,–,–,–,–,–
CCCCCCCCCCCCCC[C@H]1O[C@@H]([C@H](O)CC[C@H](O)CCCCC[C@@H](O)CC2=C[C@H](C)OC2=O)CC[C@H]1O [PYRAGONICIN],0.12,0.058,0.9,2,1.6,2.8,0.13,–,–,–,–,–,–
